Legend:
[1] = Chemical stability of the compound in pH 7.4 PBS buffer assessed as compound remaining measured after 2 hrs by HPLC analysis; assay type: physicochemical; conditions: read-out: Stabilty
[2] = Chemical stability of the compound in pH 1.2 simulated gastric fluid buffer assessed as compound remaining measured after 2 hrs by HPLC analysis; assay type: physicochemical
[3] = Chemical stability of the compound in pH 6.8 simulated intestinal fluid assessed as compound remaining measured after 2 hrs by HPLC analysis; assay type: physicochemical
[4] = Stability of the compound in human plasma assessed as compound remaining measured within 120 mins at 37 degC by HPLC analysis; assay type: ADME, cell-free; conditions: read-out: Stabilty
[5] = Prodrug conversion in human plasma assessed as release of active metabolite (R)-(6-chloro-4-(5-cyclopropyl-1H-pyrazol-3-ylamino)quinazolin-2-yl)(3-methylpiperazin-1-yl)methanone hydrochloride measured within 120 mins at 37 degC by HPLC analysis; assay type: ADME, cell-free; conditions: 2 h
[6] = Stability of the compound in rat liver S9 fraction assessed as compound remaining measured after 60 mins at 37 degC by LC-MS/MS analysis; assay type: ADME, subcellular; conditions: read-out: Stabilty
[7] = Initial plasma concentration in Wistar rat assessed as (R)-(6-chloro-4-(5-cyclopropyl-1H-pyrazol-3-ylamino)quinazolin-2-yl)(3-methylpiperazin-1-yl)methanone hydrochloride at 2.5 mg/kg, iv measured upto 24 hrs by LC/MS/MS analysis; assay type: ADME, organism-based; conditions: in vivo
[8] = AUC in Wistar rat assessed as (R)-(6-chloro-4-(5-cyclopropyl-1H-pyrazol-3-ylamino)quinazolin-2-yl)(3-methylpiperazin-1-yl)methanone hydrochloride at 13.5 mg/kg, po measured upto 24 hrs by LC/MS/MS analysis; assay type: ADME, organism-based; design: route oral, dose 13.5 mg/kg, time <=24; conditions: in vivo
[9] = AUC (0 to infinity) in Wistar rat assessed as (R)-(6-chloro-4-(5-cyclopropyl-1H-pyrazol-3-ylamino)quinazolin-2-yl)(3-methylpiperazin-1-yl)methanone hydrochloride at 13.5 mg/kg, po measured upto 24 hrs by LC/MS/MS analysis; assay type: ADME, organism-based; design: route oral, dose 13.5 mg/kg, time <=24; conditions: in vivo
[10] = Half life in Wistar rat assessed as (R)-(6-chloro-4-(5-cyclopropyl-1H-pyrazol-3-ylamino)quinazolin-2-yl)(3-methylpiperazin-1-yl)methanone hydrochloride at 13.5 mg/kg, po measured upto 24 hrs by LC/MS/MS analysis; assay type: ADME, organism-based; conditions: in vivo
[11] = Tmax in Wistar rat assessed as (R)-(6-chloro-4-(5-cyclopropyl-1H-pyrazol-3-ylamino)quinazolin-2-yl)(3-methylpiperazin-1-yl)methanone hydrochloride at 13.5 mg/kg, po measured upto 24 hrs by LC/MS/MS analysis; assay type: ADME, organism-based; conditions: in vivo
[12] = Cmax in Wistar rat assessed as (R)-(6-chloro-4-(5-cyclopropyl-1H-pyrazol-3-ylamino)quinazolin-2-yl)(3-methylpiperazin-1-yl)methanone hydrochloride at 13.5 mg/kg, po measured upto 24 hrs by LC/MS/MS analysis; assay type: ADME, organism-based; design: route oral, dose 13.5 mg/kg, time <=24; conditions: in vivo
[13] = Oral bioavailability in Wistar rat assessed as (R)-(6-chloro-4-(5-cyclopropyl-1H-pyrazol-3-ylamino)quinazolin-2-yl)(3-methylpiperazin-1-yl)methanone hydrochloride at 13.5 mg/kg measured upto 24 hrs by LC/MS/MS analysis; assay type: ADME, organism-based; conditions: in vivo
[14] = Volume of distribution in Wistar rat assessed as (R)-(6-chloro-4-(5-cyclopropyl-1H-pyrazol-3-ylamino)quinazolin-2-yl)(3-methylpiperazin-1-yl)methanone hydrochloride at 2.5 mg/kg, iv measured upto 24 hrs by LC/MS/MS analysis; assay type: ADME, organism-based; conditions: in vivo
[15] = Half life in Wistar rat assessed as (R)-(6-chloro-4-(5-cyclopropyl-1H-pyrazol-3-ylamino)quinazolin-2-yl)(3-methylpiperazin-1-yl)methanone hydrochloride at 2.5 mg/kg, iv measured upto 24 hrs by LC/MS/MS analysis; assay type: ADME, organism-based; conditions: in vivo
[16] = AUC (0 to infinity) in Wistar rat assessed as (R)-(6-chloro-4-(5-cyclopropyl-1H-pyrazol-3-ylamino)quinazolin-2-yl)(3-methylpiperazin-1-yl)methanone hydrochloride at 2.5 mg/kg, iv measured upto 24 hrs by LC/MS/MS analysis; assay type: ADME, organism-based; design: route intravenous, dose 2.5 mg/kg, time <=24; conditions: in vivo
[17] = AUC in Wistar rat assessed as (R)-(6-chloro-4-(5-cyclopropyl-1H-pyrazol-3-ylamino)quinazolin-2-yl)(3-methylpiperazin-1-yl)methanone hydrochloride at 2.5 mg/kg, iv measured upto 24 hrs by LC/MS/MS analysis; assay type: ADME, organism-based; design: route intravenous, dose 2.5 mg/kg, time <=24; conditions: in vivo
HCT-116 [18] = assay: Antitumor activity against human HCT-116 cells xenografted in BABL/c nude mouse assessed as reduction in tumor weight at 25 mg/kg, po qd measured after 21 days; assay type: functional; conditions: HCT-116, po, 504 h, time 21 day
HCT-116 [19] = assay: Antitumor activity against human HCT-116 cells xenografted in BABL/c nude mouse assessed as reduction in tumor weight at 50 mg/kg, po qd measured after 21 days; assay type: functional; conditions: HCT-116, po, 504 h, time 21 day
B16-F10 [20] = assay: Antitumor activity against mouse B16F10 cells xenografted in BABL/c nude mouse assessed as reduction in tumor volume at 25 mg/kg, po qd measured after 21 days; assay type: functional; conditions: 504 h, time 21 day
B16-F10 [21] = assay: Antitumor activity against mouse B16F10 cells xenografted in BABL/c nude mouse assessed as reduction in tumor volume at 50 mg/kg, po qd measured after 21 days; assay type: functional; conditions: 504 h, time 21 day
[22] = Toxicity in […] nude mouse harboring human HCT-116 cells assessed as body weight loss at 25 to 50 mg/kg, po qd measured after 21 days relative to control; assay type: organism-based; conditions: in vivo, 504 h, dose 25-50 mg/kg, time 21 day
[23] = Toxicity in […] nude mouse harboring mouse B16F10 cells assessed as body weight loss at 25 to 50 mg/kg, po qd measured after 21 days relative to control; assay type: organism-based; conditions: in vivo, 504 h, dose 25-50 mg/kg, time 21 day

## CC(C)C(=O)OCOC(=O)N1CCN(C(=O)c2nc(Nc3cc(C4CC4)[nH]n3)c3cc(Cl)ccc3n2)C[C@H]1C
[1]
  remaining at 2 h: 93.5%
[2]
  Stability: 90%
[3]
  Stability: 46%
[4]
  remaining at 2 h: 6.1%
[5]
  Drug metabolism: 89.9%
[6]
  remaining at 1 h: 14%
[7]
  C0: 4130 ng/mL
[8]
  AUC: 129.7 ng·h/mL
[9]
  AUC: 470.8 ng·h/mL
[10]
  t1/2: 20.1 h
[11]
  Tmax: 4.98 min
[12]
  Cmax: 31.5 ng/mL
[13]
  F: 7.55%
[14]
  Vd: 21.6 L/kg
[15]
  t1/2: 7.1 h
[16]
  AUC: 1173.5 ng·h/mL
[17]
  AUC: 1124.8 ng·h/mL
HCT-116 [18]
  inhibition in vivo at 25 mg/kg: 54%
HCT-116 [19]
  inhibition in vivo at 50 mg/kg: 65%
B16-F10 [20]
  inhibition in vivo at 25 mg/kg: 51%
B16-F10 [21]
  inhibition in vivo at 50 mg/kg: 63%
[22]
  Activity: Non-Toxic
[23]
  Activity: Non-Toxic

— ChEMBL document CHEMBL4765244, “Synthesis, bioconversion, pharmacokinetic and pharmacodynamic evaluation of N-isopropyl-oxy-carbonyloxymethyl prodrugs of CZh-226, a potent and selective PAK4 inhibitor” (Eur J Med Chem, 2020)
